11 compounds from ChEMBL document CHEMBL5244207, “Phenanthrenes: A Promising Group of Plant Secondary Metabolites” (J Nat Prod, 2018) can be followed below.

One may read the IC50 as the midpoint of a concentration-inhibition curve. The term LC50 denotes the concentration lethal to half of the exposed cells or organisms.

In brackets after ≈: the same amount, converted by molar mass.

Data set [1] has as its system Trichophyton rubrum. Nature of the data set: Antimicrobial activity against Trichophyton rubrum assessed as inhibition zone at 10 ug/disk. It counts as functional. To be noted: read-out: IZ.
For data set [2], the system named is RAW264.7. Nature of the data set: Antiinflammatory activity in mouse RAW264.7 cells assessed as reduction in LPS-induced nitric oxide production. It counts as functional, cell-based.
Data set [3] is described as follows: Hemolytic activity in human Neutrophil at 10 uM relative to control. It counts as toxicity, cell-based.
The nature of data set [4]: Hemolytic activity in human Neutrophil assessed as hemolysis rate at 10 uM relative to control. In kind it is toxicity, cell-based. To be noted: human neutrophils, read-out: Activity.
Data set [5] is described as follows: Antioxidant activity assessed as DPPH radical scavenging activity incubated for 30 mins by spectrophotometric analysis. In kind it is functional.
In data set [6] the test system is RAW264.7. Put plainly: Antiinflammatory activity against mouse RAW264.7 cells assessed as inhibition of LPS-induced COX2 expression. It counts as functional, cell-based.
The test system of data set [7] is RAW264.7. Put plainly: Antiinflammatory activity against mouse RAW264.7 cells assessed as inhibition of LPS-induced COX1 expression. In kind it is functional, cell-based.
The test system of data set [8] is Staphylococcus aureus. Nature of the data set: Antibacterial activity against Staphylococcus aureus assessed as inhibition of bacterial growth. In kind it is functional, organism-based.
Data set [9] deals with Staphylococcus epidermidis. Nature of the data set: Antibacterial activity against Staphylococcus epidermidis assessed as reduction in bacterial growth. In kind it is functional, organism-based.
In data set [10] the test system is SK-OV-3. Nature of the data set: Cytotoxicity against human SK-OV-3 cells assessed as reduction in cell viability. It counts as functional, cell-based.
Data set [11] can be described thus: Antioxidant activity assessed as DPPH radical scavenging activity. In kind it is functional. A general note: DPPH is a stable violet radical that fades when it is reduced.
A short description of data set [12]: Toxicity in brine shrimp assessed as lethality. To be noted: artemia salina.
Data set [13] deals with C6. Put plainly: Neuroprotective activity in rat C6 cells assessed as NGF secretion level. It counts as functional.
The subject of data set [14] is BV-2. Nature of the data set: Antiinflammatory activity in mouse BV2 cells assessed as reduction in LPS-induced nitric oxide production. In kind it is functional, cell-based.
In data set [15] the test system is SGC-7901. Put plainly: Cytotoxicity against human SGC-7901 cells assessed as reduction in cell viability. It counts as functional, cell-based. To be noted: Homo sapiens, SGC-7901; read-out: IC50.
The test system of data set [16] is Bel-7402. Put plainly: Cytotoxicity against human Bel-7402 cells assessed as reduction in cell viability. It counts as functional, cell-based.
Data set [17] concerns HL-60. Put plainly: Cytotoxicity against human HL-60 cells assessed as reduction in cell viability by MTT assay. It counts as functional, cell-based. On the technique in general: Tetrazolium dyes change colour on reduction, which living cells bring about.
The subject of data set [18] is NCI-H460. Nature of the data set: Cytotoxicity against human NCI-H460 cells assessed as reduction in cell viability. It counts as functional, cell-based.
In data set [19] the test system is M14. Put plainly: Cytotoxicity against human M14 cells assessed as reduction in cell viability. It counts as functional, cell-based.
For data set [20], the system named is Rattus norvegicus. Put plainly: Anxiolytic activity in rat assessed as increase in time spent in open arm at 5 mg/kg by elevated plus maze test. It counts as functional.
Data set [21] concerns Rattus norvegicus. Put plainly: Anxiolytic activity in rat assessed as number of entries in open arm at 5 mg/kg by elevated plus maze test. It counts as functional.
Data set [22] deals with Rattus norvegicus. Nature of the data set: Anxiolytic activity in rat assessed as head tips at 5 mg/kg by elevated plus maze test. In kind it is functional.
Data set [23] concerns Trichophyton rubrum. Nature of the data set: Antimicrobial activity against Trichophyton rubrum assessed as inhibition zone at 5 ug/disk. In kind it is functional. To be noted: read-out: IZ.

Consider `COc1cc2c(c(OC)c1O)-c1c(ccc(O)c1O)CC2`, for which, in data set [1], the zone of inhibition at 10 µg/disc is 12.7 mm.

In the case of `C=Cc1cc(O)cc2ccc3c(C)c(O)ccc3c12`, the IC50 in data set [2] (Mus musculus, RAW264.7) was 12.7 µM; in [2] (raw264.7), 10.5 µM; in data set [5] it was 1.7 µM. Moreover, the Activity in data set [3] was 5.3. Further, in [4], the hemolysis at 10 µM was found to be 11.3%.

Take `COC1=CC(=O)c2c(ccc3cc(OC)c(O)cc23)C1=O`: the figures for the IC50 in data set [6] and in data set [7] were 0.27 µM and 0.08 µM, respectively.

Take `COc1cc(O)c2c(c1C)CCc1cc(O)c(C)cc1-2`: the IC50 in [8] and in data set [9] was 12.5 µg/mL (≈ 46.2 µM) each time.

As for `COc1cc(O)c2c(c1)CCc1cc(O)c(-c3c(OC)cc(O)c4c3CCc3c-4ccc(O)c3-c3c(OC)cc(O)c4c3CCc3cc(O)ccc3-4)cc1-2`, the IC50 in [10] amounted to 41.5 µg/mL (≈ 57.4 µM); in [11], 4.8 µg/mL (≈ 6.64 µM).

In the case of `O=P1(N(CCCl)CCCl)NCCCO1` (stereo not given) [CYCLOPHOSPHAMIDE ANHYDROUS], in data set [12], the median lethal concentration (LC50) is 16.4 µg/mL (≈ 62.8 µM).

Take `COc1cc2c(ccc3cc(OC)c(O)c(OC)c32)cc1O`: the Activity in data set [13] worked out at 162.4%. Also, in [14], the IC50 was 19.6 µM.

Turning to `COC1=CC(=O)C2=C(CCc3cccc(O)c32)C1=O` [EPHEMERANTHOQUINONE B], the half-inhibitory concentration (IC50) in data set [15] is 2.9 µg/mL (≈ 11.3 µM); in data set [16], 1.8 µg/mL (≈ 7.02 µM); in [17], 3 µM.

For `COC1=CC(=O)c2c(ccc3cccc(O)c23)C1=O`, the IC50 was 5 µM in data set [18] and 1.5 µM in data set [19].

As for `C=Cc1c(C)c(O)cc2ccc3c(C)c(O)ccc3c12`, the IC50 in [2] (Mus musculus, RAW264.7) turned out to be 15.6 µM. Further, the Time in [20] amounted to 56.54 s. Moreover, the Activity in [21] is given as more than 6; in [22], more than 80.

Consider `CC(=O)N1CCN(c2ccc(OCC3COC(Cn4ccnc4)(c4ccc(Cl)cc4Cl)O3)cc2)CC1` (stereo not given) [KETOCONAZOLE], for which the zone of inhibition at 5 µg/disc in data set [23] was 15.7 mm.
